In ChEMBL document CHEMBL1201862, “PubChem BioAssay data set” (2004):
Activity calls are given as the source filed them.

Assays:
[1] = biological target: Metabotropic glutamate receptor 4 (Rattus norvegicus, UniProt P31423); assay: Modulation of the Metabotropic Glutamate Receptor mGluR4: Rat PAM Potency. [Related pubchem assays (depositor defined):AID2437, AID2807]; type: functional
Bcl-2-related protein A1 [2] = biological target: T1, Bcl-2-related protein A1 (Mus musculus, UniProt Q07440); assay: Bfl-1 binding inhibitors, SAR follow-up, biochemical, fluorescence polarization (AID 1070)
T1 sequence (Q07440 whole entry): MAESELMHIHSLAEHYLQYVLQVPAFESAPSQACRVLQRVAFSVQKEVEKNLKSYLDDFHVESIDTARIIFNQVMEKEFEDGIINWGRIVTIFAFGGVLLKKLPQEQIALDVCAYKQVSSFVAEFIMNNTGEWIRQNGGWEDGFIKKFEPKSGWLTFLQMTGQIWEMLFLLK

Bcl-2-related protein A1 [3] = biological target: T1, Bcl-2-related protein A1; assay: small-molecule antagonists of Bfl-1/BH3 interaction – biochemical, TR-FRET, mouse Bfl-1, confirmation (AID 621);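 further: TR-FRET binding of GST-Bfl-1 to FITC-labelled Bid peptide via terbium antibody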
[4] = biological target: Protein-tyrosine kinase 2-beta (Homo sapiens, UniProt Q14289);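 further: potency of inhibitors of PYK2 kinase phosphorylation of poly-GT substrate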
Protein-tyrosine kinase 2-beta, sequence (Q14289 whole entry): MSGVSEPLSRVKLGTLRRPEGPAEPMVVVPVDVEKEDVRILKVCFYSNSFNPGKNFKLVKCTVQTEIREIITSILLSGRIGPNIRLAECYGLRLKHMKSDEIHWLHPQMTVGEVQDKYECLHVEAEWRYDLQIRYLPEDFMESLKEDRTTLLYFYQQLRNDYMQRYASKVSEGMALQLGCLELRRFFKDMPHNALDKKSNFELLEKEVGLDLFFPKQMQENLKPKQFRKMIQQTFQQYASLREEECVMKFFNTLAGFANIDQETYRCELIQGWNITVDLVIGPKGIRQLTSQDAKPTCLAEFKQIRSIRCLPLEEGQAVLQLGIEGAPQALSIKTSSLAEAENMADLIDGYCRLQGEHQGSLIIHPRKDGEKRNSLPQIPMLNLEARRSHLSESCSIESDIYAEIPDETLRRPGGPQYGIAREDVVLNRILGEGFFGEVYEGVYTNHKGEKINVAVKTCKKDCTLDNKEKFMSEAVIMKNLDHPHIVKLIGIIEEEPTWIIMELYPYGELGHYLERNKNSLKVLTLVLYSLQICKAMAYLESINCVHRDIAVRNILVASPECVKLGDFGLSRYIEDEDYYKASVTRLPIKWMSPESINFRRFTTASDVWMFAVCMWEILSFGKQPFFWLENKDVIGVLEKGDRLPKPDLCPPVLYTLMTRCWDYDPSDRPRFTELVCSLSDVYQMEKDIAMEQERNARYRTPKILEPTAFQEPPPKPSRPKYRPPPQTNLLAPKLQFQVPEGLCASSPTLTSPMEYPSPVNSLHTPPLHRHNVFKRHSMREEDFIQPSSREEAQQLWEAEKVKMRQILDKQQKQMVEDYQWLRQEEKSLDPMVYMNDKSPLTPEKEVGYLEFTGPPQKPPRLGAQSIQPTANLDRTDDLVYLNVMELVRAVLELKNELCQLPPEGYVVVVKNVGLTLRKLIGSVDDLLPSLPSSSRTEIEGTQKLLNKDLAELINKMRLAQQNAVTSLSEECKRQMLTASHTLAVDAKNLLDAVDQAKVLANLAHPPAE

[5] = M. tuberculosis H37Rv growth inhibitors, H37Rv strain (AID 1626); type: functional
Protein Rev = Protein Rev (Human immunodeficiency virus type 1 group M subtype B (isolate WMJ22)(HIV-1), UniProt P05866); assay: inhibitors of Rev protein–RRE RNA complex – biochemical, protein-RNA interaction, dose response (AID 842); set-up: species or system Human immunodeficiency virus 1
Protein Rev, sequence (P05866 whole entry): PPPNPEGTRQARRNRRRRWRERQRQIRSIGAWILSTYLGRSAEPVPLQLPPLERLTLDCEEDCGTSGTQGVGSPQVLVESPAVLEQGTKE

[6] = biological target: Glyceraldehyde-3-phosphate dehydrogenase (Homo sapiens, UniProt P04406)
Glyceraldehyde-3-phosphate dehydrogenase, sequence (P04406 whole entry): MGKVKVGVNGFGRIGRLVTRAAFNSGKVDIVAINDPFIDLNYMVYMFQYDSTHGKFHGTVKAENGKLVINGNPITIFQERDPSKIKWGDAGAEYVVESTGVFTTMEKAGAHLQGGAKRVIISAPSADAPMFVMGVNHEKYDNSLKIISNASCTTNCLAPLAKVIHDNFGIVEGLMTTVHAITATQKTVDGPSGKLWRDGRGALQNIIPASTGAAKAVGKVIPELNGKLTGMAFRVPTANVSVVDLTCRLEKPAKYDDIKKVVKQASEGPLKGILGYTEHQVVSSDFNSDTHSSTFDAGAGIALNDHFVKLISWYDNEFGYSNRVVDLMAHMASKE

[7] = biological target: Melanin-concentrating hormone receptor 1 (Homo sapiens, UniProt Q99705); assay: Fluorescence-based counterscreen for antagonists of the G-protein coupled receptor 7 (GPR7): cell-based high throughput dose response assay to identify antagonists of the melanin-concentrating hormone receptor 1 (MCHR1).; type: functional
Melanin-concentrating hormone receptor 1, sequence (Q99705 whole entry): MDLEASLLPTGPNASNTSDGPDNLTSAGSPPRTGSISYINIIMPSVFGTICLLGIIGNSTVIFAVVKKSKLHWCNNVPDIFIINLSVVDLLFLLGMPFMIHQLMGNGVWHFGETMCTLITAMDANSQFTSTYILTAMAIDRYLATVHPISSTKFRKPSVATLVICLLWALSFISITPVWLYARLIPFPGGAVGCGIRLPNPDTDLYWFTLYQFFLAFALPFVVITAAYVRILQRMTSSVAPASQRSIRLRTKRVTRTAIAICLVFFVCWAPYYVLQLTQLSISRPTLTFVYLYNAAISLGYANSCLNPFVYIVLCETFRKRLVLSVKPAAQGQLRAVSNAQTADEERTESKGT

[8] = biological target: Lysosomal acid glucosylceramidase (Homo sapiens, UniProt P04062); assay: Dose response cell-based high throughput screening assay to identify enhancers of beta-glucosidase activity. [Related pubchem assays: 784 ]; type: functional
Lysosomal acid glucosylceramidase, sequence (P04062 whole entry): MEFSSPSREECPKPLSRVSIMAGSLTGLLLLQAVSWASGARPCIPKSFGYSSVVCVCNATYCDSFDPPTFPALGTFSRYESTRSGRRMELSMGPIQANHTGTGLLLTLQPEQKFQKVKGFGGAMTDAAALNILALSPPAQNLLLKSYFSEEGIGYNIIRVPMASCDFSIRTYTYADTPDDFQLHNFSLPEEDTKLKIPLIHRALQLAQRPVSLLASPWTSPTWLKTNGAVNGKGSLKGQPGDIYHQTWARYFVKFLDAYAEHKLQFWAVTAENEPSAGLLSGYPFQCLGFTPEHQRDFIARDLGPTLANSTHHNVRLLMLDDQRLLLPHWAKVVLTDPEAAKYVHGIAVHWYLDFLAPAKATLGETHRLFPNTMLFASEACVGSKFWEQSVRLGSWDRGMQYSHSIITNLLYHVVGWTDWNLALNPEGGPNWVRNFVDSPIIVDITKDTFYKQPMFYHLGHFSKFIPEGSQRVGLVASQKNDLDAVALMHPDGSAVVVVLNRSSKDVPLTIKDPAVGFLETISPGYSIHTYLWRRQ

[9] = biological target: T2, DNA repair and recombination protein RAD54-like (Homo sapiens, UniProt Q92698); assay: RAD54 Holliday junction migration blockers – biochemical, fluorescence, cherry-picked samples, dose series, confirmation (AID 651657); type: functional
T2 sequence (Q92698 whole entry): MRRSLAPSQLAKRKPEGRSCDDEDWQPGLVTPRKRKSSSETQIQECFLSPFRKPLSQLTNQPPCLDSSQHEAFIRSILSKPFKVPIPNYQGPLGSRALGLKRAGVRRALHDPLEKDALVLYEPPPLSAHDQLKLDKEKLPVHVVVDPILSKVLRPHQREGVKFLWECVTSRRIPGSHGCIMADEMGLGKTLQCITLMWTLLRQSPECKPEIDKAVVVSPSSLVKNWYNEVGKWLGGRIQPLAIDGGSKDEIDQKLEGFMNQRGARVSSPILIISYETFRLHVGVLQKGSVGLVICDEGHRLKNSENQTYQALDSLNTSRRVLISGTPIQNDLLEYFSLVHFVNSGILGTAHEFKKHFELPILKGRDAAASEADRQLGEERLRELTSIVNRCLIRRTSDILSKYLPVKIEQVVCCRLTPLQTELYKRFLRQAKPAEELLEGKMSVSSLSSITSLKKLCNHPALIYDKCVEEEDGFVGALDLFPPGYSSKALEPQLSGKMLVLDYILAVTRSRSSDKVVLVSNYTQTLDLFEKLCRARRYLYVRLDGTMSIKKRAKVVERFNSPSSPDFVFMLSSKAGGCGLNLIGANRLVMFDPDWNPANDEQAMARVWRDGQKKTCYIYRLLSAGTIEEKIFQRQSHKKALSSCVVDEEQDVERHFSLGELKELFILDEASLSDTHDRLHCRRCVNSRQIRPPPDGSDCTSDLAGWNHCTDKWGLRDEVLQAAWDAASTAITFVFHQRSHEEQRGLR

Kallikrein-7 = Kallikrein-7 (Homo sapiens, UniProt P49862); assay: Fluorescence Intensity-based biochemical primary high throughput dose response assay to identify activators of kallikrein-7 (K7) zymogen.
Kallikrein-7, sequence (P49862 whole entry): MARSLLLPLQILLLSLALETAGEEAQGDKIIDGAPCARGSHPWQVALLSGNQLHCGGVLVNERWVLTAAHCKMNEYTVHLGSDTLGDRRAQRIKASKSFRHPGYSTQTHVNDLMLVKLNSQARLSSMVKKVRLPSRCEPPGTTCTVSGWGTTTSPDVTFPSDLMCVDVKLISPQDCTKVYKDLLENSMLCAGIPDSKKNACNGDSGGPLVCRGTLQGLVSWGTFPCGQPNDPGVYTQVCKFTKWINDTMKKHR

[10] = microbe, parasite or virus in culture; type: functional; details: Mycobacterium tuberculosis
[11] = viability loss of HPDE-C7K cells – cell-based, fluorescence, HTS, primary screen (AID 431); type: functional; details: Homo sapiens
[12] = HPDE-C7 pancreatic duct cell viability loss – fluorescence, HTS (AID 430); type: functional, cell-based; details: Homo sapiens
[13] = HEK-293T cell viability reduction – luminescence, B-cell screen hits, cytotoxicity control for BCR NF-kB inhibitor project, dose response (AID 489021); type: functional, cell-based;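 further: HEK-293T cells carrying an NF-kB luciferase reporter; cells exposed to compound for about 14 hours before viability readout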
[14] = biological target: T3, Sentrin-specific protease 1 (Homo sapiens, UniProt Q9P0U3); assay: SENP1 catalytic domain blockers, concentration series – biochemical, kinetic FRET, dose response (AID 651697); type: functional; details: read-out: IC50_Mean
T3 sequence (Q9P0U3 whole entry): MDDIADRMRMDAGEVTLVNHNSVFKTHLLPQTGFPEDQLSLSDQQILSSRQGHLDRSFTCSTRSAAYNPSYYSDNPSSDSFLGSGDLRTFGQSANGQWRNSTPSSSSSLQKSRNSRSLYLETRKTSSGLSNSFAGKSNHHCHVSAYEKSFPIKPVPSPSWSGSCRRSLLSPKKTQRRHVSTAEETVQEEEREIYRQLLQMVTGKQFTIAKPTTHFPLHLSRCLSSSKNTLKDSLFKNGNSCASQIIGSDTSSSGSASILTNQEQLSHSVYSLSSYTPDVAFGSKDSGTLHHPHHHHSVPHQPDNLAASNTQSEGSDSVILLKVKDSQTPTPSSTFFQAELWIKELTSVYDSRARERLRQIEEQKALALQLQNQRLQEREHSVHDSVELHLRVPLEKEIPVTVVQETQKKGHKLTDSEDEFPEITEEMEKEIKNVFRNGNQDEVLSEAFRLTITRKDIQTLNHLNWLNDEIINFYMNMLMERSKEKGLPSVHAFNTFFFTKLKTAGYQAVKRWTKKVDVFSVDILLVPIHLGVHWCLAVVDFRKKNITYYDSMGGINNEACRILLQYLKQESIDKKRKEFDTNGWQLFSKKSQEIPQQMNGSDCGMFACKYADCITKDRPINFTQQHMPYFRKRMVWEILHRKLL

[15] = biological target: T3, Sentrin-specific protease 1; assay: Dose response confirmation of small molecule inhibitors of the catalytic domain of the SUMO protease, SENP1 in a FRET assay.; type: functional; details: read-out: IC50_Mean
Cytochrome P450 3A4 = Cytochrome P450 3A4 (Homo sapiens, UniProt P08684);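 further: CYP3A4 tested as one member of a cytochrome P450 panel screen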
Cytochrome P450 3A4, sequence (P08684 whole entry): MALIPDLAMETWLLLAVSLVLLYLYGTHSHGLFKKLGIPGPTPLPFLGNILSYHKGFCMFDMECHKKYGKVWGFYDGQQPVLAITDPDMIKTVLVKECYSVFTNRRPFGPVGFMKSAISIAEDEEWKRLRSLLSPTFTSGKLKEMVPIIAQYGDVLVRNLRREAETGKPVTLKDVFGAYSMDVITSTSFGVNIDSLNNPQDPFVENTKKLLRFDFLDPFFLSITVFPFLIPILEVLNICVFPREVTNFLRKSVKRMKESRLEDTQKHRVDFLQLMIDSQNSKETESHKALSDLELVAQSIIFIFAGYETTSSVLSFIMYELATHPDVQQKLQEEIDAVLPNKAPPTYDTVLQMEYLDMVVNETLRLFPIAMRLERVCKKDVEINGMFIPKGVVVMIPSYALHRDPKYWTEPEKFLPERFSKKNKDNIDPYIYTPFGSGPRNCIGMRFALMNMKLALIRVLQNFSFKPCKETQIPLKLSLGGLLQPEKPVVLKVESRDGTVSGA

[16] = biological target: Glucose-6-phosphate 1-dehydrogenase (Homo sapiens, UniProt P11413); assay: inhibition of Homo sapiens G6PD, dose series – biochemical, fluorescence, selectivity assay for P. falciparum G6PD inhibitor project, dose response (AID 504792); type: functional
Glucose-6-phosphate 1-dehydrogenase, sequence (P11413 whole entry): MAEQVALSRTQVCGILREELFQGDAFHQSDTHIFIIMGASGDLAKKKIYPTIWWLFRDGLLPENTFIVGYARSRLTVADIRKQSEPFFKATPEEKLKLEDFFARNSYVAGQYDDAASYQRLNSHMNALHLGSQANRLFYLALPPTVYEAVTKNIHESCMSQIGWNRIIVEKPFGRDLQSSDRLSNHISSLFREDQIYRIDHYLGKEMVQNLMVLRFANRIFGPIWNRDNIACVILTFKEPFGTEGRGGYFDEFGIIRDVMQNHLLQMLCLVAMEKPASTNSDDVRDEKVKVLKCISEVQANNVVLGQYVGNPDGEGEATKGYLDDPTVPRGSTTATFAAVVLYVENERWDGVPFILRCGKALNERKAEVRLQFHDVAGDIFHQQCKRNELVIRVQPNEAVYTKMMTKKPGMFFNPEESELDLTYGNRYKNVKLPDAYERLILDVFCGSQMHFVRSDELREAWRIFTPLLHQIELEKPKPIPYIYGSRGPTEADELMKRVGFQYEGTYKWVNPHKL

[17] = antiviral protection against BTV-induced cell death – arbovirus, BSR cells, confirmation (AID 1250); type: functional;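 further: protection from viral cytopathic effect measured as cell viability by ATP luminescence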
[18] = Luminescence Cell-Based Dose Response to Identify Activators of 5'UTR Stem-Loop Driven Prion Protein mRNA Translation in H4-C Neuroglioblastoma Cells. [Related pubchem assays: 1829 (Project Summary), 1814 (Primary HTS)]; type: functional
H4 = assay: Luminescence Cell-Based Dose Response HTS to Identify Activators of 5'UTR Stem-Loop Driven Prion Protein mRNA Translation in H4 Neuroglioblastoma Cells. [Related pubchem assays: 1829 (Project Summary), 1814 (Primary HTS)]; type: functional; details: Homo sapiens
[19] = Luminescence Cell-Based Dose Confirmation to Identify Activators of 5'UTR Stem-Loop Driven Alpha-Synuclein mRNA Translation in H4 Neuroglioblastoma Cells. [Related pubchem assays: 1829 (Project Summary), 1814 (Primary HTS)]; type: functional
[20] = Luminescence Cell-Based Dose Response HTS to Identify Activators of Luciferase Translation or Activity in H4 […] Cells. [Related pubchem assays: 1829 (Project Summary), 1814 (Primary HTS)]; type: functional
[21] = biological target: T4, Corticotropin-releasing factor receptor 2/Corticotropin-releasing factor-binding protein (Homo sapiens, UniProt P24387+Q13324); assay: activators of CRF receptor 2 with binding protein – uHTS hits, confirmation (AID 602473); type: functional; details: read-out: EC50_Mean
T4 sequence (Q13324 whole entry): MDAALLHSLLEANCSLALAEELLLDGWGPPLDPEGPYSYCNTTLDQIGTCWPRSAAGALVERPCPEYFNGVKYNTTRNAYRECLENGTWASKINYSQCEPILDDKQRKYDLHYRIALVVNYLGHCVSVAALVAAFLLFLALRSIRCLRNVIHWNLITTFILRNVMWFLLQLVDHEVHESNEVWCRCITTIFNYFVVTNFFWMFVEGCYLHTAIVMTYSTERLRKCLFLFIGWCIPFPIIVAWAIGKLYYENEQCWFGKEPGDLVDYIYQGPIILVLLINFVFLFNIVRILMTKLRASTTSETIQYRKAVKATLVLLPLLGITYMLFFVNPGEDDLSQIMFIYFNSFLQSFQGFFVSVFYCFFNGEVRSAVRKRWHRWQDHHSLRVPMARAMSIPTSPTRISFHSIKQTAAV
T4 sequence (P24387 whole entry): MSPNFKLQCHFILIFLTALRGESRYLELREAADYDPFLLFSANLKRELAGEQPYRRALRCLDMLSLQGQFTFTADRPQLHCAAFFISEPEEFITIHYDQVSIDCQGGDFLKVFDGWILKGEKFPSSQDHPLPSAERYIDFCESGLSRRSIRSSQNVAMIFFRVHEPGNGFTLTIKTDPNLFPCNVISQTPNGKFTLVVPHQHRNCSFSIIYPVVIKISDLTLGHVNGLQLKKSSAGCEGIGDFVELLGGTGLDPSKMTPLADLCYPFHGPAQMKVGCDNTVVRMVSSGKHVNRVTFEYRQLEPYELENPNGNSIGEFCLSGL

[22] = Luminescence Cell-Based Dose Response to Identify Activators of Luciferase Translation or Activity in H4-C Neuroglioblastoma Cells. [Related pubchem assays: 1829 (Project Summary), 1814 (Primary HTS)]; type: functional
cells = type: functional, cell-based
[23] = biological target: T5, Nuclear receptor subfamily 0 group B member 1 (Homo sapiens, UniProt P51843); type: functional, cell-based;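 further: HEK293T cells transfected with SF-1 and DAX-1 plus StAR promoter luciferase reporter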
T5 sequence (P51843 whole entry): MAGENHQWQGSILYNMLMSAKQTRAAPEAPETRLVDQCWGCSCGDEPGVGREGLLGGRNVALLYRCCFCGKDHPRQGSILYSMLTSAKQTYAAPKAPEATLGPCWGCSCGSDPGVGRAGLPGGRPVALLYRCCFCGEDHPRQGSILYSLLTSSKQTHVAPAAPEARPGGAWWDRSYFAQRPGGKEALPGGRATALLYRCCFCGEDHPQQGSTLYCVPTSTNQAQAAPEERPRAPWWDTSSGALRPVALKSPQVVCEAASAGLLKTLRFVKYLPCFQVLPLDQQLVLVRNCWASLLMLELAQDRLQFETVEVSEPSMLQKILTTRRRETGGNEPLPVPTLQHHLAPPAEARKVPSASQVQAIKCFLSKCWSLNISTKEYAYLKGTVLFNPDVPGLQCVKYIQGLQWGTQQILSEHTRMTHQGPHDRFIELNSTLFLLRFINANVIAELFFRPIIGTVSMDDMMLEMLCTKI

Metabotropic glutamate receptor 4, sequence (P31423 whole entry): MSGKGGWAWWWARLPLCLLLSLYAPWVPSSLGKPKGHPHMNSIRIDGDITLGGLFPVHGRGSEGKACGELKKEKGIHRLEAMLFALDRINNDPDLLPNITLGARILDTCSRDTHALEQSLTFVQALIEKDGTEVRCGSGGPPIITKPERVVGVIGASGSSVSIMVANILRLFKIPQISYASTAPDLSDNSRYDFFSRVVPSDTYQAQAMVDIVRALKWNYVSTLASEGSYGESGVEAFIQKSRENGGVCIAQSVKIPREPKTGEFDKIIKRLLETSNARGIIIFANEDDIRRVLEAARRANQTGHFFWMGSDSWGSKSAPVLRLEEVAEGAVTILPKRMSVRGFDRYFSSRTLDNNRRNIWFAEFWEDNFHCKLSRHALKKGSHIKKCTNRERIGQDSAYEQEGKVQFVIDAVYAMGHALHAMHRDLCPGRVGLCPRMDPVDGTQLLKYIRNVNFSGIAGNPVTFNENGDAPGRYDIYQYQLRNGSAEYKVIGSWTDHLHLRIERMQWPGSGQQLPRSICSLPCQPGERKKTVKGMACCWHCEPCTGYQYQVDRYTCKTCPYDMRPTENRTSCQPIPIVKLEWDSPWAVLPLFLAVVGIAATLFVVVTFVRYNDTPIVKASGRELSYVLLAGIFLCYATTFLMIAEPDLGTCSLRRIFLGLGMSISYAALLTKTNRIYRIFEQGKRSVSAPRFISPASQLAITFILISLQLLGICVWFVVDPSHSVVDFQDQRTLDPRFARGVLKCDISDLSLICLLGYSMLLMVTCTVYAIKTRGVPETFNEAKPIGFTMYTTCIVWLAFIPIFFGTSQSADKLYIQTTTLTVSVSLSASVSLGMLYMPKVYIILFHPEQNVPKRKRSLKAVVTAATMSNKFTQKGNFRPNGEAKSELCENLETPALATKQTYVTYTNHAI

O=C(Nc1ccc(N2C(=O)CC(c3ccccc3)C2=O)c(Cl)c1)c1ccccn1 (stereo not drawn)
EC50 [1]: 490 nM (active)

COc1ncccc1-c1nnn(-c2ccc(C)cc2)n1
IC50 (Bcl-2-related protein A1 [2]): > 100 µM (not active) | IC50 (Bcl-2-related protein A1 [3]): > 100 µM (not active)

O=Cc1ccc2noc(-c3ccc(F)cc3)c2c1
IC50 [4]: > 69.5 µM (not active) | IC50 [5]: > 100 µM (active)

O=C(Nc1ccc(Cl)c(Cl)c1)c1ccncn1
EC50 [1]: 3370 nM (active)

NCCCC(=O)N1c2ccccc2Sc2ccccc21
IC50 (Protein Rev): > 79.4 µM (not active)

Cc1cccc(N2C(=O)C(Cl)=C(N3CCN[C@@H](C)C3)C2=O)c1
IC50 [6]: > 50 µM (inconclusive)

COCCCNC(=O)/C=C1\Sc2ccccc2N(Cc2ccccc2F)C1=O
IC50 [7]: 28.8 µM (not active)

CCOCCCn1c(=N)c(C(=O)NCCN2CCOCC2)cc2c(=O)n3cccc(C)c3nc21
EC50 [8]: > 50 µM (not active) | AC50 [9]: 25.3 µM (active) | EC50 (Kallikrein-7): > 69.5 µM (inactive)

Cc1nc2cc(C(F)(F)F)ccc2n1C1CCN(Cc2nnnn2Cc2ccc3c(c2)OCO3)CC1
CC50 [10]: > 40 µM (active) | EC50 [11]: 8.93 µM (active) | EC50 [12]: 8.54 µM (active)

CCN1C(=O)c2cccc3c(NC(=O)c4cccc(N5C(=O)CCC5=O)c4)ccc1c23
IC50 [13]: > 80 µM (inactive) | IC50 [14]: 17.9 µM (active) | IC50 [15]: 11.3 µM (active) | AC50 (Cytochrome P450 3A4): 22.4 µM (inconclusive)

O=C(Nc1sc2c(c1C(=O)O)CCC2)c1ccc(F)cc1
IC50 [16]: > 80 µM (inactive) | IC50 [17]: 31.4 µM (active)

COC(=O)C(CC(=O)c1ccc(Br)cc1)n1ccnc1 (stereo not drawn)
EC50 [11]: 14.4 µM (active) | EC50 [12]: 15.5 µM (active)

Cc1nnc(SCC(=O)c2cc(C)n(C3CC3)c2C)s1
EC50 [18]: 594 nM (active) | EC50 (H4): > 120 µM (not active) | EC50 [19]: 1.88 µM (active) | EC50 [20]: < 100 nM (active) | EC50 [21]: 7.62 µM (active) | EC50 [22]: 266 nM (active)

CC(C)COc1ccc(Cc2cnc(N)nc2N)cc1
IC50 (Protein Rev): > 79.4 µM (not active)

CN1CCN(C2=C(Cl)C(=O)N(c3ccnc(Cl)c3)C2=O)CC1
IC50 (Bcl-2-related protein A1 [2]): 29 µM (active) | IC50 (Bcl-2-related protein A1 [3]): 35.6 µM (active) | IC50 [6]: > 100 µM (not active)

COc1ccc(/C=C/C(=O)Nc2ccccc2C(=O)O)cc1
IC50 (cells): > 67.5 µM (inactive) | IC50 [17]: 31 µM (active) | IC50 [23]: > 67.5 µM (inactive)

COc1ccc(-c2cc(C(F)(F)F)n3ncc(C(=O)N4CCCCC4c4cccnc4)c3n2)cc1 (stereo not drawn)
IC50 [5]: > 100 µM (active)

CC1=C(C(N)=O)C(c2cccs2)n2nc(-c3cccc(C)c3)nc2N1 (stereo not drawn)
EC50 [8]: > 50 µM (not active)
